Key:
[1] = tested on: rotavirus (strain: OSU); assay: Inhibitory activity against rotavirus in MA104 cells (SRB); type: cell-based; conditions: 10 μg/mL, rotavirus OSU in MA104 cells, 48 hours, repeated 2 times
Experimental: (§1) In order to evaluate the inhibitory activity of quercetin-7-rhamnoside against rota virus, the following in vitro test was performed using MA014 cells derived from pig kidney. Inhibitory activity of quercetin-7-rhamnoside against viral proliferation was measured by the method proposed by Kwon Dur-Han, et al. (Korean Patent Publication No. 2004-101863). Inhibitory activity against rotavirus (strain: OSU) was measured. MA104 cells were cultured on a 96-well microplate until the bottom of each well was completely covered with cells. Remaining culture medium was removed and each well was washed twice with a phosphate buffer. A rota virus solution adjusted to a concentration of TCID 50 was added to each well. […] After 48 hours, the MA104 cells were observed under a microscope. After adding 100 μL of 70% acetone, each well was kept at −20° C. for 1 hour. After drying in a desiccator, 100 μL of 0.4% (w/v) SRB (sulforhodamine B) solution dissolved in 1% (v/v) acetic acid was added. After 30 minutes of staining, the SRB solution not bound to the cells was washed off with 1% (v/v) acetic acid for 4 times. After drying, 100 μL of 10 mM Tris solution (pH 10.5) was added to each well to dissolve the stained substance at the bottom of the well. Light absorbance was measured at 562 nm to evaluate the antiviral activity. As control group, viability of cells treated with DMSO only was compared with those treated with both DMSO and virus. Each test was repeated for 2 times.

[2] = tested on: Vero cells; assay: Cytotoxicity (CC50) in Vero cells; conditions: 0.1-100 μg/mL, 48 hours
[3] = tested on: porcine respiratory coronavirus (PRCV); assay: Anti-coronavirus inhibitory activity against PRCV in ST cells; type: cell-based; conditions: 48 hours
Experimental: (§2) Antiviral activity of quercetin-7-rhamnoside against porcine transmissible gastroenteritis virus (TGEV) and porcine respiratory coronavirus (PRCV), another kind of coronaviruses, was evaluated. ST cells were cultured on a 96-well microplate until the bottom of each well was completely covered with cells. Remaining culture medium was completely removed and each well was washed twice with a phosphate buffer. TGEV or PRCV solution adjusted to a concentration of TCID50 was added to each well. Each of quercetin-7-rhamnoside, conventional antiviral agents purchased from Sigma-ribavirin, lamivudine, azidovudine, acycloguanine and glycyrrhizhin-dissolved in dimethyl sulfoxide was added to each well to a final concentration of 0.1-100 μg/mL. […] Similarly to the aforesaid evaluation of antiviral inhibitory activity against PEDV, c ells treated with DMSO only and those treated with both DMSO and TGEV or both DMSO and PRCV were used as control groups.

[4] = tested on: porcine transmissible gastroenteritis virus (TGEV); assay: Anti-coronavirus inhibitory activity against TGEV in ST cells; type: cell-based; conditions: 48 hours
Experimental: as §2

[5] = tested on: mice; assay: Toxicity test in mice; type: in vivo; conditions: 10 g/kg, dissolved in DMSO and diluted with water, observed for 7 days
Experimental: Toxicity test was performed as follows for the quercetin-7-rhamnoside of the present invention.
Quercetin-7-rhamnoside dissolved in dimethyl sulfoxide (DMSO) and diluted with water was administered to mice (10 per each group) at a dosage of 10 g/kg.

[6] = tested on: influenza type A (H1N1/WS/33) virus; assay: Antiviral activity against influenza type A virus in MDCK cells (SRB); type: cell-based, influenza virus type A (H1N1; WS/33 strain); conditions: 10 μg/mL, influenza A H1N1/WS/33 in MDCK cells, 48 hours, repeated 3 times
Experimental: In order to evaluate the inhibitory activity of quercetin-7-rhamnoside against influenza virus, the following in vitro test was performed using MDCK cells derived from dog kidney.
Inhibitory activity of quercetin-7-rhamnoside against viral proliferation was measured by the method proposed by Kwon Dur-Han, et al. (Korean Patent Application No. 2004-101863). Inhibitory activity against influenza virus type A (H1N1; WS/33 strain) was measured. MDCK cells were cultured on a 96-well microplate until the bottom of each well was completely covered with cells. Remaining culture medium was completely removed and each well was washed twice with a phosphate buffer. Each of quercetin-7-rhamnoside; conventional antiviral agents purchased from Sigma-ribavirin and amantadine; oseltamivir (trade name: Tamiflu) purchased from Roche; and zanamivir (trade name: Relenza) purchased from Glaxo Wellcome; dissolved in dimethyl sulfoxide was added to each well to a final concentration of 10 μg/mL. […] After adding 100 μL of 70% acetone, each well was kept at −20° C. for 1 hour. After drying in a desiccator, 100 μL of 0.4% (w/v) SRB (sulforhodamine B) solution dissolved in 1% (v/v) acetic acid was added. After 30 minutes' staining, the SRB staining solution not bound to the cells was washed off with 1% (v/v) acetic acid for 4 times. After drying, 100 μL of 10 mM Tris solution (pH 10.5) was added to each well to dissolve the stained substance at the bottom of the well. Light absorbance was measured at 562 nm to evaluate the antiviral activity. As control group, viability of cells treated with DMSO only was compared with those treated with both DMSO and virus. Each test was repeated 3 times.

[7] = tested on: rhinovirus (strain: rhinovirus 2); assay: Inhibitory activity against rhinovirus in HeLa cells (SRB); type: cell-based; conditions: 10 μg/mL, rhinovirus 2 in HeLa cells, 48 hours, repeated 3 times
Experimental: as §1, with “against rhino” for “against rota”, “using HeLa, one of human cervical cancer cell lines, cells.” for “using MA014 cells derived from pig kidney.”, “2004-101863). […] HeLa” for “2004-101863). Inhibitory activity against rotavirus (strain: OSU) was measured. MA104”, “A rhino” for “A rota”, “the HeLa” for “the MA104”, “for 3” for “for 2”

[8] = tested on: ST cells; assay: Cytotoxicity (CC50) in ST cells; conditions: 0.1-100 μg/mL, 48 hours
[9] = tested on: porcine epidemic diarrhea virus (PEDV); assay: Antiviral activity against PEDV in Vero cells (SRB staining); conditions: PEDV in Vero cells, maximum dosage 100 μg/mL, 48 hours
[10] = tested on: influenza type B (B/Lee/40) virus; assay: Inhibitory activity against influenza type B virus in MDCK cells (SRB); type: cell-based; conditions: 10 μg/mL, influenza B/Lee/40 in MDCK cells, 48 hours, repeated 3 times

SMILES: C[C@@H]1O[C@@H](Oc2cc(O)c3c(=O)c(O)c(-c4ccc(O)c(O)c4)oc3c2)[C@H](O)[C@H](O)[C@H]1O [Quercetin-7-rhamnoside, quercetin-7-rhamnoside]
- Inhibitory activity (%) (Mean ± S.D.) [1]: 77.37%
- CC50 (concentration required for 50% cytotoxicity) [2]: > 100 µg/mL
- IC50 [3]: (59.8 μg/mL)]
- IC50 [4]: (63.3 μg/mL)]
- deaths after administration [5]: none of them were found dead
- Inhibitory activity (%) (Mean ± S.D.) [6]: 66.03%
- Inhibitory activity (%) (Mean ± S.D.) [7]: 77.89%
- CC50 [8]: > 100 µg/mL
- IC50 (concentration required for 50% inhibition of viruses) [9]: (0.014 μg/mL)]
- Inhibitory activity (%) (Mean ± S.D.) [10]: 92.66%

From patent US7998937B2, “Flavonoid compound having an antiviral activity” (Korea Research Institute of Bioscience and Biotechnology, priority 2005, dated 2011)
